Results taken from the supplement of paper PMC10307832.

Columns and labels:
Assay in all cases: relative viability (nuclei count vs DMSO), 5 days (fraction); higher = more cells survive
Omipalisib + Navitoclax = compound: COc1ncc(-c2ccc3nccc(-c4ccnnc4)c3c2)cc1NS(=O)(=O)c1ccc(F)cc1F [Omipalisib] + CC1(C)CCC(c2ccc(Cl)cc2)=C(CN2CCN(c3ccc(C(=O)NS(=O)(=O)c4ccc(N[C@H](CCN5CCOCC5)CSc5ccccc5)c(S(=O)(=O)C(F)(F)F)c4)cc3)CC2)C1 [Navitoclax] (partner 0.5 µM)
Method in brief: (§1)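 Relative viability equals treated-well nuclei counts divided by vehicle-well nuclei counts. Counts came from 4× images of lung cancer cell lines grown in 1536-well plates for 5 days after pin-tool dosing on the day after seeding. Dosing used one drug alone or a fixed anchor-drug dose plus five library-drug doses (not always all listed) in √10 steps, and values are medians of duplicate plates.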

Omipalisib + Pemetrexed = compound: COc1ncc(-c2ccc3nccc(-c4ccnnc4)c3c2)cc1NS(=O)(=O)c1ccc(F)cc1F [Omipalisib] + Nc1nc2[nH]cc(CCc3ccc(C(=O)N[C@@H](CCC(=O)O)C(=O)O)cc3)c2c(=O)[nH]1 [Pemetrexed] (partner 0.2 µM)
Method in brief: as §1

Omipalisib + Olaparib = compound: COc1ncc(-c2ccc3nccc(-c4ccnnc4)c3c2)cc1NS(=O)(=O)c1ccc(F)cc1F [Omipalisib] + O=C(c1cc(Cc2n[nH]c(=O)c3ccccc23)ccc1F)N1CCN(C(=O)C2CC2)CC1 [Olaparib] (partner 8 µM)
Method in brief: as §1

Omipalisib + OSI-027 = compound: COc1ncc(-c2ccc3nccc(-c4ccnnc4)c3c2)cc1NS(=O)(=O)c1ccc(F)cc1F [Omipalisib] + COc1cccc2cc(-c3nc([C@H]4CC[C@H](C(=O)O)CC4)n4ncnc(N)c34)[nH]c12 [OSI-027] (partner 0.5 µM)
Method in brief: as §1

Omipalisib + Luminespib = compound: COc1ncc(-c2ccc3nccc(-c4ccnnc4)c3c2)cc1NS(=O)(=O)c1ccc(F)cc1F [Omipalisib] + CCNC(=O)c1noc(-c2cc(C(C)C)c(O)cc2O)c1-c1ccc(CN2CCOCC2)cc1 [Luminespib] (partner 0.01 µM)
Method in brief: as §1

Omipalisib + Alpelisib = compound: COc1ncc(-c2ccc3nccc(-c4ccnnc4)c3c2)cc1NS(=O)(=O)c1ccc(F)cc1F [Omipalisib] + Cc1nc(NC(=O)N2CCC[C@H]2C(N)=O)sc1-c1ccnc(C(C)(C)C(F)(F)F)c1 [Alpelisib] (partner 2 µM)
Method in brief: as §1

LC-2-ad was tested, and the relative viability (Omipalisib + Navitoclax; first compound 0.0003 µM) was 0.531, the relative viability (Omipalisib + Navitoclax; first compound 0.003 µM) was 0.309 and the relative viability (Omipalisib + Navitoclax; first compound 0.03 µM) was 0.105. For the same cell line, the relative viability (Omipalisib + Pemetrexed; first compound 0.0003 µM) was 0.279, the relative viability (Omipalisib + Pemetrexed; first compound 0.003 µM) was 0.26 and the relative viability (Omipalisib + Pemetrexed; first compound 0.03 µM) was 0.275. It also gave a relative viability (Omipalisib + Olaparib; first compound 0.0003 µM) of 0.779, a relative viability (Omipalisib + Olaparib; first compound 0.003 µM) of 0.796 and a relative viability (Omipalisib + Olaparib; first compound 0.03 µM) of 0.639. It also gave a relative viability (Omipalisib + OSI-027; first compound 0.0003 µM) of 0.732, a relative viability (Omipalisib + OSI-027; first compound 0.003 µM) of 0.501 and a relative viability (Omipalisib + OSI-027; first compound 0.03 µM) of 0.439. For the same cell line, the relative viability (Omipalisib + Luminespib; first compound 0.0003 µM) was 0.825, the relative viability (Omipalisib + Luminespib; first compound 0.003 µM) was 1.05 and the relative viability (Omipalisib + Luminespib; first compound 0.03 µM) was 0.461. For the same cell line, the relative viability (Omipalisib + Alpelisib; first compound 0.0003 µM) was 0.858, the relative viability (Omipalisib + Alpelisib; first compound 0.003 µM) was 0.856 and the relative viability (Omipalisib + Alpelisib; first compound 0.03 µM) was 0.425.

With UMC-11 the relative viability (Omipalisib + Navitoclax; first compound 0.0003 µM) was 0.31, the relative viability (Omipalisib + Navitoclax; first compound 0.003 µM) was 0.277 and the relative viability (Omipalisib + Navitoclax; first compound 0.03 µM) was 0.265. It also gave a relative viability (Omipalisib + Pemetrexed; first compound 0.0003 µM) of 0.717, a relative viability (Omipalisib + Pemetrexed; first compound 0.003 µM) of 0.63 and a relative viability (Omipalisib + Pemetrexed; first compound 0.03 µM) of 0.648. The relative viability (Omipalisib + Olaparib; first compound 0.0003 µM) was 0.332, the relative viability (Omipalisib + Olaparib; first compound 0.003 µM) was 0.548 and the relative viability (Omipalisib + Olaparib; first compound 0.03 µM) was 0.376. It also gave a relative viability (Omipalisib + OSI-027; first compound 0.0003 µM) of 0.376, a relative viability (Omipalisib + OSI-027; first compound 0.003 µM) of 0.349 and a relative viability (Omipalisib + OSI-027; first compound 0.03 µM) of 0.48. For the same cell line, the relative viability (Omipalisib + Luminespib; first compound 0.0003 µM) was 0.913, the relative viability (Omipalisib + Luminespib; first compound 0.003 µM) was 0.775 and the relative viability (Omipalisib + Luminespib; first compound 0.03 µM) was 0.742. It also gave a relative viability (Omipalisib + Alpelisib; first compound 0.0003 µM) of 0.965, a relative viability (Omipalisib + Alpelisib; first compound 0.003 µM) of 0.829 and a relative viability (Omipalisib + Alpelisib; first compound 0.03 µM) of 0.822.

NCI-H1666 showed a relative viability (Omipalisib + Navitoclax; first compound 0.0003 µM) of 0.808, a relative viability (Omipalisib + Navitoclax; first compound 0.003 µM) of 0.597 and a relative viability (Omipalisib + Navitoclax; first compound 0.03 µM) of 0.398. For the same cell line, the relative viability (Omipalisib + Pemetrexed; first compound 0.0003 µM) was 0.879, the relative viability (Omipalisib + Pemetrexed; first compound 0.003 µM) was 0.892 and the relative viability (Omipalisib + Pemetrexed; first compound 0.03 µM) was 0.631. For the same cell line, the relative viability (Omipalisib + Olaparib; first compound 0.0003 µM) was 0.687, the relative viability (Omipalisib + Olaparib; first compound 0.003 µM) was 0.749 and the relative viability (Omipalisib + Olaparib; first compound 0.03 µM) was 0.686. The relative viability (Omipalisib + OSI-027; first compound 0.0003 µM) was 0.758, the relative viability (Omipalisib + OSI-027; first compound 0.003 µM) was 0.621 and the relative viability (Omipalisib + OSI-027; first compound 0.03 µM) was 0.609. For the same cell line, the relative viability (Omipalisib + Luminespib; first compound 0.0003 µM) was 0.983, the relative viability (Omipalisib + Luminespib; first compound 0.003 µM) was 0.955 and the relative viability (Omipalisib + Luminespib; first compound 0.03 µM) was 0.729. It also gave a relative viability (Omipalisib + Alpelisib; first compound 0.0003 µM) of 0.968, a relative viability (Omipalisib + Alpelisib; first compound 0.003 µM) of 0.718 and a relative viability (Omipalisib + Alpelisib; first compound 0.03 µM) of 0.509.

Cell Line NCI-H1993 has a relative viability (Omipalisib + Navitoclax; first compound 0.0003 µM) of 0.722, a relative viability (Omipalisib + Navitoclax; first compound 0.003 µM) of 0.703 and a relative viability (Omipalisib + Navitoclax; first compound 0.03 µM) of 0.618. The relative viability (Omipalisib + Pemetrexed; first compound 0.0003 µM) was 0.529, the relative viability (Omipalisib + Pemetrexed; first compound 0.003 µM) was 0.478 and the relative viability (Omipalisib + Pemetrexed; first compound 0.03 µM) was 0.513. For the same cell line, the relative viability (Omipalisib + Olaparib; first compound 0.0003 µM) was 1.05, the relative viability (Omipalisib + Olaparib; first compound 0.003 µM) was 0.624 and the relative viability (Omipalisib + Olaparib; first compound 0.03 µM) was 0.398. For the same cell line, the relative viability (Omipalisib + OSI-027; first compound 0.0003 µM) was 0.48, the relative viability (Omipalisib + OSI-027; first compound 0.003 µM) was 0.597 and the relative viability (Omipalisib + OSI-027; first compound 0.03 µM) was 0.621. The relative viability (Omipalisib + Luminespib; first compound 0.0003 µM) was 0.806, the relative viability (Omipalisib + Luminespib; first compound 0.003 µM) was 0.465 and the relative viability (Omipalisib + Luminespib; first compound 0.03 µM) was 0.485. It also gave a relative viability (Omipalisib + Alpelisib; first compound 0.0003 µM) of 0.652, a relative viability (Omipalisib + Alpelisib; first compound 0.003 µM) of 0.649 and a relative viability (Omipalisib + Alpelisib; first compound 0.03 µM) of 0.672.

NCI-H1944 was tested, and the relative viability (Omipalisib + Navitoclax; first compound 0.0003 µM) was 0.975, the relative viability (Omipalisib + Navitoclax; first compound 0.003 µM) was 0.775 and the relative viability (Omipalisib + Navitoclax; first compound 0.03 µM) was 0.474. It also gave a relative viability (Omipalisib + Pemetrexed; first compound 0.0003 µM) of 0.626, a relative viability (Omipalisib + Pemetrexed; first compound 0.003 µM) of 0.471 and a relative viability (Omipalisib + Pemetrexed; first compound 0.03 µM) of 0.324. For the same cell line, the relative viability (Omipalisib + Olaparib; first compound 0.0003 µM) was 0.334, the relative viability (Omipalisib + Olaparib; first compound 0.003 µM) was 0.349 and the relative viability (Omipalisib + Olaparib; first compound 0.03 µM) was 0.203. The relative viability (Omipalisib + OSI-027; first compound 0.0003 µM) was 0.396, the relative viability (Omipalisib + OSI-027; first compound 0.003 µM) was 0.256 and the relative viability (Omipalisib + OSI-027; first compound 0.03 µM) was 0.201. It also gave a relative viability (Omipalisib + Luminespib; first compound 0.0003 µM) of 0.686, a relative viability (Omipalisib + Luminespib; first compound 0.003 µM) of 0.417 and a relative viability (Omipalisib + Luminespib; first compound 0.03 µM) of 0.296. It also gave a relative viability (Omipalisib + Alpelisib; first compound 0.0003 µM) of 0.884, a relative viability (Omipalisib + Alpelisib; first compound 0.003 µM) of 0.638 and a relative viability (Omipalisib + Alpelisib; first compound 0.03 µM) of 0.441.
